Drawing on ChEMBL document CHEMBL4138291, “Mucroniferanines A-G, Isoquinoline Alkaloids from Corydalis mucronifera” (J Nat Prod, 2018), this text covers IC50 for 22 compounds.

Where only a bound is given, the exact number is not on record here.

Sequence of Acetylcholinesterase (P22303 whole entry): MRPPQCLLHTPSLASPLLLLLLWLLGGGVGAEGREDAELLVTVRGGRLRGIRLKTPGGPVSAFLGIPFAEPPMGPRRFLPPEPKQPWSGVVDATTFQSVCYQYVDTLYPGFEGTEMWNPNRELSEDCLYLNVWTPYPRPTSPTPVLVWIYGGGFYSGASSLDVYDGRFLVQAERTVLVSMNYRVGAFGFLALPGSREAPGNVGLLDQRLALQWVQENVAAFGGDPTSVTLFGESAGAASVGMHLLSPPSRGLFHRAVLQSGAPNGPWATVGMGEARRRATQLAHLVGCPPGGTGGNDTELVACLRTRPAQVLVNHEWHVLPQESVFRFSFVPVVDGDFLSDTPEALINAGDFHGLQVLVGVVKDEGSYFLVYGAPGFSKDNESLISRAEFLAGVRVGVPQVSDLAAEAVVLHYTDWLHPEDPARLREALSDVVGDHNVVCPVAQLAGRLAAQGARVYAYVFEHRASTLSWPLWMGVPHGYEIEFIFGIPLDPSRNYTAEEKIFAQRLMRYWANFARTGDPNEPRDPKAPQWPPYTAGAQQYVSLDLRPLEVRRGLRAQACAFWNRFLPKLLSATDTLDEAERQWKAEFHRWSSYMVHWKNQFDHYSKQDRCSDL

The assay addresses Acetylcholinesterase (Homo sapiens, UniProt P22303). Kind of assay: Inhibition of human erythrocyte AChE using S-acetylthiocholine iodide as substrate pretreated for 20 mins followed by substrate addition measured after 30 mins by Ellman's method.
For the compound `COc1ccc2c(c1O)CN1CCc3cc4c(cc3C1C2)OCO4` (configuration not stated), the IC50 is greater than 100 µM.

As to `C[C@@]1(c2nccc3cc4c(cc23)OCO4)Oc2ccc3c(c2O1)OCO3`, the IC50 is greater than 100 µM.

With `CO[C@@H]1O[C@](C)(c2nccc3cc4c(cc23)OCO4)c2ccc3c(c21)OCO3`, the IC50 was greater than 100 µM.

`CN1CCc2cc3c(cc2[C@H]1[C@H]1O[C@@H](O)c2c1ccc1c2OCO1)OCO3`: the IC50 is greater than 100 µM.

In the case of `CO[C@@H]1O[C@H]([C@@H]2c3cc4c(cc3CCN2C)OCO4)c2ccc3c(c21)OCO3`, the 50% inhibitory concentration (IC50) is greater than 100 µM.

For the compound `CO[C@@H]1O[C@@](C)(c2nccc3cc4c(cc23)OCO4)c2ccc3c(c21)OCO3`, the half-maximal inhibitory concentration (IC50) is greater than 100 µM.

For the compound `c1cc2cc3c(cc2c([C@H]2Oc4ccc5c(c4O2)OCO5)n1)OCO3`, the concentration for half-maximal inhibition (IC50) was determined as 78.1 µM.

In the case of `CN1CCc2cc3c(cc2[C@H]1[C@H]1OC(=O)c2c1ccc1c2OCO1)OCO3`, the half-inhibitory concentration (IC50) is greater than 100 µM.

As to `C[C@@H](c1ccc2c(c1O)OCO2)c1nccc2cc3c(cc12)OCO3`, the IC50 is greater than 100 µM.

Turning to `CO[C@H]1O[C@@](C)(c2nccc3cc4c(cc23)OCO4)c2ccc3c(c21)OCO3`, the IC50 amounted to 28.3 µM.

In the case of `CN1CCc2cc3c(cc2C1=O)OCO3`, the IC50 is greater than 100 µM.

Turning to `C[C@]1(c2nccc3cc4c(cc23)OCO4)Oc2ccc3c(c2O1)OCO3`, the IC50 is greater than 100 µM.

Consider `COC1c2c(ccc3c2OCO3)-c2ccc3cc4c(cc3c2N1C)OCO4` (configuration not stated), for which the IC50 was determined as 96.8 µM.

As to `c1cc2cc3c(cc2c([C@@H]2Oc4ccc5c(c4O2)OCO5)n1)OCO3`, the 50% inhibitory concentration (IC50) is greater than 100 µM.

Regarding `C[C@H](c1ccc2c(c1O)OCO2)c1nccc2cc3c(cc12)OCO3`, the IC50 was greater than 100 µM.

`CO[C@H]1O[C@](C)(c2nccc3cc4c(cc23)OCO4)c2ccc3c(c21)OCO3`: the half-inhibitory concentration (IC50) was greater than 100 µM.

As for `CN1CCc2cc3c(cc2[C@@]12C(=O)c1ccc4c(c1[C@@H]2O)OCO4)OCO3`, the IC50 is greater than 100 µM.

With `CN1CCc2cc3c(cc2C(=O)Cc2ccc4c(c2C1)OCO4)OCO3`, the IC50 was greater than 100 µM.

On to `CN1CCc2cc3c(cc2C12OCc1c(ccc4c1OCO4)C2=O)OCO3` (racemic), for which the half-maximal inhibitory concentration (IC50) is greater than 100 µM.

For the compound `CC1(c2nccc3cc4c(cc23)OCO4)OC(O)c2c1ccc1c2OCO1` (single isomer, unassigned), the IC50 worked out at 11.3 µM.

Consider `CC1(c2nccc3cc4c(cc23)OCO4)OC(O)c2c1ccc1c2OCO1` (single isomer, unassigned; epimer 1), for which the IC50 is 12.2 µM.

Consider `CN1Cc2c(ccc3c2OCO3)-c2ccc3cc4c(cc3c21)OCO4` [DIHYDROSANGUINARINE], for which the IC50 was greater than 100 µM.
